Assay results published in the supplement of paper PMC11451515.

Assays:
Test in all cases: AUC of viability dose-response curve (% viability x log10 dose units); higher = less sensitive
Settings in all cases: 48 h
[1] = test system: SEM cells
Procedure, shortened: (§1)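 Over 48 h at 37°C, leukemia cells in 1536-well plates (500 or 1000 cells/well), adapted to each medium, received library compounds in DMSO at 11 threefold doses from 47 μM to 0.79 nM. CellTiter-Glo One luminescence, normalised per plate to DMSO and cell-free wells, was fitted by a four-parameter log-logistic function of log10 dose. The area under the curve was then integrated by trapezoidal rule, after scaling curves above full viability and removing those that failed quality control.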

[2] = test system: NOMO1
Procedure, shortened: as §1

[3] = test system: P12-Ichikawa
Procedure, shortened: as §1

[4] = RPMI 5 mM glucose + 10% dialyzed FBS

Row | Structure (SMILES) | AUC of viability dose-response curve ([1]; HPLM + 10% dialyzed FBS) | AUC of viability dose-response curve ([1]; RPMI 5 mM glucose + 10% FBS) | AUC of viability dose-response curve [1, 4] | AUC of viability dose-response curve ([2]; HPLM + 10% dialyzed FBS) | AUC of viability dose-response curve ([2]; RPMI 5 mM glucose + 10% FBS) | AUC of viability dose-response curve [2, 4] | AUC of viability dose-response curve ([3]; HPLM + 10% dialyzed FBS) | AUC of viability dose-response curve ([3]; RPMI 5 mM glucose + 10% FBS) | AUC of viability dose-response curve [3, 4]
1 | CN(C)CC(=O)N1CCC(CC1)C2=CC=C(NC(=O)C3=NC(=C[NH]3)C#N)C(=C2)\C4=C\CCCC4 | 359 | 358 | 348 | 458 | 454 | 456 | 467 | 463 | 443
2 | C[C@@H]1C[C@@H]([C@H](O)CC2CC(=O)NC(=O)C2)C(=O)[C@@H](C)C1 | 279 | 268 | 295 | 315 | 337 | 323 | 312 | 288 | 299
3 | Cc1oncc1C(=O)Nc1ccc(C(F)(F)F)cc1 | 471 | 468 | 465 | 458 | 461 | 422 | 461 | 454 | 459
4 | C[C@H](c1ccc(F)cc1CCCC(=O)O)N(c1cc(F)ccc1F)[S+](=O)([O-])c1ccc(Cl)cc1 | 462 | 465 | 461 | 452 | 455 | 450 | 454 | 449 | 447
5 | CN1CCN2c3ccccc3Cc3ccccc3C2C1 (stereo not given) | 467 | 463 | 453 | 433 | 474 | 472 | 453 | 441 | 466
